The record followed here is PubChem BioAssay (NCI).

The structures appear in SMILES notation. Where “and” joins values, the source holds several entries; their conditions need not be identical. Equal entries are not always repeated.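 Interpolation was linear, between the two tested concentrations surrounding the appropriate level; five concentrations were tested over 48 hours in 96-well plates. Here, GI50 denotes the concentration required for 50% inhibition of growth. The concentration for full growth arrest is given as TGI.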

Among the test systems are NCI-H522 lung; NCI-H460 lung; NCI-H23 lung; IGROV1 ovarian; BT-549 breast; T-47D breast; UACC-62 melanoma; SW-620 colon; HOP-92 NSCLC; NCI-H226 lung.
Holding throughout (assay): NCI-60 cell line screen, 48 h

For the compound `CC1CCN(C(=O)OCc2nc3nc(Cl)nc(N4CCOCC4)c3[nH]2)CC1`, the GI50 was 1.08 µM in the test with NCI-H522 lung; 1.38 µM with NCI-H460 lung; 1.58 µM in the test on NCI-H23 lung; 0.529 µM with IGROV1 ovarian; 1.25 µM with BT-549 breast; 1.76 µM in the test on T-47D breast. Besides, the GI50 is 1.29 µM with UACC-62 melanoma, 0.551 µM in the test with SW-620 colon, 0.0497 µM in the test with HOP-92 NSCLC and 1.62 µM with NCI-H226 lung. Moreover, the TGI in the test with NCI-H522 lung stood at 3.13 µM; with NCI-H460 lung, 2.99 µM; in the test on NCI-H23 lung, 3.65 µM; in the test with IGROV1 ovarian, 1.83 µM; in the test with BT-549 breast it was 3.07 µM; in the test with T-47D breast it was 4.89 µM. The TGI in the test with UACC-62 melanoma worked out at 2.55 µM; in the test with SW-620 colon, 2.07 µM; in the test on HOP-92 NSCLC, 1.06 µM; in the test on NCI-H226 lung it was 4.23 µM.
As for `CCc1c(Cl)c(C)cc(O)c1Cl`, the TGI in the test with NCI-H522 lung is above 100 µM; with NCI-H460 lung, above 100 µM; with NCI-H23 lung, above 100 µM; in the test on IGROV1 ovarian, above 100 µM; in the test on BT-549 breast, 42.8 µM; in the test with T-47D breast, above 100 µM. For the same compound, the TGI with UACC-62 melanoma was above 100 µM; in the test with SW-620 colon it was 47.9 µM; with HOP-92 NSCLC, 92.3 µM; with NCI-H226 lung it was 63.2 µM.
Regarding `COc1ccc2c(c1)c[n+](C)c1c3cc(OC)c(OC)cc3ccc21`, the TGI is 2.33 µM and 4.34 µM in the test on NCI-H522 lung; 2.72 µM and 10.9 µM with NCI-H460 lung; 3.08 µM and 11.8 µM in the test with NCI-H23 lung; 2.85 µM and 15.8 µM with IGROV1 ovarian; 9.63 µM and 26.2 µM with BT-549 breast; 4.93 µM and 26.4 µM in the test on T-47D breast. Besides, the TGI in the test on UACC-62 melanoma was 23.9 µM; with SW-620 colon, 3.13 µM and 3.76 µM; in the test on HOP-92 NSCLC, 9.98 µM and 35.1 µM; in the test on NCI-H226 lung it was 14.8 µM and 25.9 µM. The GI50 in the test with NCI-H460 lung was 1.23 µM and 2.7 µM; with NCI-H23 lung, 1.48 µM and 3.35 µM; in the test on IGROV1 ovarian, 1.39 µM and 4.4 µM; in the test on BT-549 breast, 2.4 µM and 10.2 µM; in the test with T-47D breast it was 1.95 µM and 5.02 µM; in the test on HOP-92 NSCLC, 3.69 µM and 14.6 µM. In addition, the GI50 with NCI-H226 lung was 4.22 µM and 12.1 µM.
Regarding `CN(C)CCC(=O)C(=Cc1ccc(O)cc1)C(=O)CCN(C)C`, the GI50 in the test with NCI-H522 lung was 16.4 µM; in the test with NCI-H460 lung, above 100 µM; in the test with NCI-H23 lung it was above 100 µM; in the test with IGROV1 ovarian, above 100 µM; in the test on BT-549 breast it was above 100 µM; in the test with T-47D breast it was 47.7 µM. In addition, the GI50 in the test with UACC-62 melanoma was above 100 µM; in the test on SW-620 colon, 67.2 µM; in the test with HOP-92 NSCLC it was 95.6 µM; with NCI-H226 lung, above 100 µM. Also, the TGI in the test with NCI-H522 lung is 38.9 µM; with NCI-H460 lung, above 100 µM; with NCI-H23 lung, above 100 µM; in the test with IGROV1 ovarian, above 100 µM; in the test with BT-549 breast, above 100 µM; in the test on T-47D breast it was above 100 µM. Moreover, the TGI in the test on UACC-62 melanoma, with SW-620 colon, in the test with HOP-92 NSCLC and with NCI-H226 lung was above 100 µM in each case.
For the compound `Cc1cc2cc3c(=O)[nH]c(=O)[nH]c3nc2cc1C`, the TGI in the test with NCI-H522 lung, in the test with NCI-H460 lung, with NCI-H23 lung, in the test with IGROV1 ovarian, in the test with BT-549 breast and in the test on T-47D breast was above 100 µM throughout. Further, the TGI in the test with UACC-62 melanoma, in the test with SW-620 colon, in the test on HOP-92 NSCLC and with NCI-H226 lung was above 100 µM in each case.
Turning to `COC12C(COC(N)=O)C3=C(C(=O)C(C)=C(N)C3=O)N1CC1C2N1C` (stereo unspecified), the TGI in the test with NCI-H522 lung was found to be 25.4 µM; in the test with NCI-H460 lung, 1.86 µM; with NCI-H23 lung, 17.6 µM; in the test with IGROV1 ovarian it was 28.6 µM; in the test with BT-549 breast, 28.3 µM; in the test with T-47D breast, 182 µM. Also, the TGI came out at 11.1 µM with UACC-62 melanoma, 35.8 µM with SW-620 colon, 36.4 µM in the test with HOP-92 NSCLC and 38.8 µM with NCI-H226 lung.
As to `BrCc1cccc(C[P+](c2ccccc2)(c2ccccc2)c2ccccc2)c1`, the GI50 in the test with NCI-H522 lung is 6.88 µM; with NCI-H460 lung it was 25 µM; in the test with NCI-H23 lung, 36.2 µM; in the test on IGROV1 ovarian it was 21.6 µM; in the test with BT-549 breast it was 34.5 µM; with T-47D breast it was 3.99 µM. Moreover, the GI50 in the test with UACC-62 melanoma was 7.97 µM; in the test on SW-620 colon it was 22.3 µM; in the test on HOP-92 NSCLC, 2.84 µM; in the test on NCI-H226 lung it was 45 µM. In addition, the TGI in the test with NCI-H522 lung, with NCI-H460 lung, in the test with NCI-H23 lung, in the test with IGROV1 ovarian, with BT-549 breast and with T-47D breast was above 100 µM each time. Besides, the TGI was above 100 µM in the test on UACC-62 melanoma, above 100 µM with SW-620 colon, 52.4 µM in the test with HOP-92 NSCLC and above 100 µM in the test on NCI-H226 lung.
`CSc1nc(NC2OC(COC(C)=O)C(OC(C)=O)C(OC(C)=O)C2OC(C)=O)c(N=CC=Nc2c(NC3OC(COC(C)=O)C(OC(C)=O)C(OC(C)=O)C3OC(C)=O)nc(SC)n(C)c2=O)c(=O)n1C` (stereo unspecified): the GI50 with NCI-H522 lung was above 50 µM; in the test with NCI-H460 lung it was above 50 µM; with NCI-H23 lung, above 50 µM; with IGROV1 ovarian, above 50 µM; in the test with BT-549 breast, 37.5 µM; in the test with T-47D breast, 43.2 µM. In addition, the values for the GI50 in the test with UACC-62 melanoma, in the test on SW-620 colon and in the test on HOP-92 NSCLC were above 50 µM, above 50 µM and 14.8 µM, respectively. For the same compound, the TGI is above 100 µM with NCI-H522 lung; above 100 µM in the test with NCI-H460 lung; above 100 µM in the test on NCI-H23 lung; above 100 µM in the test with IGROV1 ovarian; 50 µM and > 100 µM in the test on BT-549 breast; 50 µM and > 100 µM with T-47D breast. For the same compound, the TGI was above 100 µM in the test with UACC-62 melanoma; above 100 µM in the test on SW-620 colon; 50 µM and 64.5 µM with HOP-92 NSCLC; > 50 µM and 97.8 µM with NCI-H226 lung.
As to `Oc1ccc(Nc2c3ccccc3nc3occ(Cl)c23)cc1`, the GI50 in the test with NCI-H522 lung was 2.37 µM; with NCI-H460 lung, 3.68 µM; with NCI-H23 lung it was 3.26 µM; in the test on IGROV1 ovarian, 1.19 µM; in the test with BT-549 breast, 19.4 µM; in the test on T-47D breast, 6.49 µM. The GI50 with UACC-62 melanoma was 2.4 µM; in the test with SW-620 colon, 4.71 µM; with HOP-92 NSCLC, 0.0905 µM; in the test with NCI-H226 lung it was 3.12 µM. The TGI in the test on NCI-H522 lung was 8.32 µM; with NCI-H460 lung, 28.9 µM; in the test on NCI-H23 lung, above 100 µM; in the test with IGROV1 ovarian it was 5.32 µM; with BT-549 breast it was above 100 µM; with T-47D breast, above 100 µM. Moreover, the TGI with UACC-62 melanoma is 10.4 µM; with SW-620 colon, above 100 µM; with HOP-92 NSCLC it was 8.96 µM; with NCI-H226 lung, 13.5 µM.
In the case of `CN(C)C(=S)Sc1ccc([N+](=O)[O-])cc1[N+](=O)[O-]`, the GI50 in the test with NCI-H522 lung was 0.482 µM; in the test with NCI-H460 lung, 0.74 µM; in the test on NCI-H23 lung, 2.93 µM; with IGROV1 ovarian, 1.26 µM; in the test with BT-549 breast, 3.22 µM; in the test with T-47D breast, 1.56 µM. Besides, the GI50 in the test on UACC-62 melanoma was 1.71 µM; with SW-620 colon it was 1.1 µM; in the test with HOP-92 NSCLC, 2.95 µM; in the test with NCI-H226 lung, 4.33 µM. Moreover, the TGI in the test on NCI-H522 lung came out at 1.6 µM; with NCI-H460 lung it was 4.57 µM; with NCI-H23 lung it was 11.6 µM; in the test with IGROV1 ovarian, 13.1 µM; in the test on BT-549 breast, 9.93 µM; in the test with T-47D breast, 3.75 µM. Further, the TGI with UACC-62 melanoma worked out at 5.97 µM; in the test with SW-620 colon, 2.79 µM; in the test on HOP-92 NSCLC it was 11.2 µM; in the test on NCI-H226 lung, 17.5 µM.
Consider `CCc1ccc(/C=C/c2ccc(O)c3ncccc23)[n+](C)c1`, for which the GI50 is 2.3 µM in the test on NCI-H522 lung; 0.507 µM with NCI-H460 lung; 4.2 µM in the test on NCI-H23 lung; 11.4 µM in the test on IGROV1 ovarian; 15.1 µM in the test with BT-549 breast; 1.66 µM in the test on T-47D breast. For the same compound, the GI50 is above 21.5 µM in the test with UACC-62 melanoma, 4.47 µM in the test on SW-620 colon, 0.0293 µM in the test with HOP-92 NSCLC and above 22.4 µM in the test on NCI-H226 lung. For the same compound, the TGI in the test on NCI-H522 lung, with NCI-H460 lung, in the test with NCI-H23 lung, with IGROV1 ovarian, with BT-549 breast and in the test with T-47D breast was above 100 µM throughout. The TGI was above 100 µM with UACC-62 melanoma, above 100 µM in the test on SW-620 colon, 3.54 µM in the test on HOP-92 NSCLC and above 100 µM with NCI-H226 lung.
For the compound `Nc1c(C(=O)c2ccccc2)cnn1-c1ccc(F)cc1`, the GI50 with NCI-H522 lung, with NCI-H460 lung, with NCI-H23 lung, with IGROV1 ovarian, in the test with BT-549 breast and in the test on T-47D breast was above 25 µM each time. In addition, the GI50 is above 25 µM in the test on UACC-62 melanoma, above 25 µM in the test with SW-620 colon, above 19.3 µM in the test on HOP-92 NSCLC and above 25 µM with NCI-H226 lung. In addition, the TGI in the test with NCI-H522 lung, in the test with NCI-H460 lung, in the test on NCI-H23 lung, with IGROV1 ovarian, in the test with BT-549 breast and in the test on T-47D breast was above 25 µM each time. The TGI in the test on UACC-62 melanoma, with SW-620 colon, in the test on HOP-92 NSCLC and with NCI-H226 lung was above 25 µM in each case.
